Source: patent publication US11572590B2, “Methods for evaluating tumor cell spheroids using 3D microfluidic cell culture device” (Dana-Farber Cancer Institute, Inc., priority 2017, dated 2023)
Where two headings read alike, the source gives them in different places.

Tests used:
Test in all cases: SelectScreen Kinase Profiling, single point inhibition and IC50 for off-target kinases
Assay type in all cases: biochemical
off-target kinases [1] = molecular target: off-target kinases (Homo sapiens, UniProt O95819); conditions: MAP4K4 (HGK), ATP Km app, ZLYTE
off-target kinases [2] = molecular target: off-target kinases (Homo sapiens, UniProt P00533, L861Q); conditions: EGFR (ErbB1) L861Q (mutant), ZLYTE, ATP Km app
off-target kinases [3] = molecular target: off-target kinases (Homo sapiens, UniProt P36888); conditions: FLT3, ATP Km app, ZLYTE
off-target kinases [4] = molecular target: off-target kinases (Homo sapiens, UniProt P43250); conditions: GRK6, ZLYTE, ATP Km app
off-target kinases [5] = molecular target: T1, off-target kinases (Homo sapiens, UniProt P54760); conditions: EPHB4, ZLYTE, ATP Km app
T1 sequence (P54760 16-987): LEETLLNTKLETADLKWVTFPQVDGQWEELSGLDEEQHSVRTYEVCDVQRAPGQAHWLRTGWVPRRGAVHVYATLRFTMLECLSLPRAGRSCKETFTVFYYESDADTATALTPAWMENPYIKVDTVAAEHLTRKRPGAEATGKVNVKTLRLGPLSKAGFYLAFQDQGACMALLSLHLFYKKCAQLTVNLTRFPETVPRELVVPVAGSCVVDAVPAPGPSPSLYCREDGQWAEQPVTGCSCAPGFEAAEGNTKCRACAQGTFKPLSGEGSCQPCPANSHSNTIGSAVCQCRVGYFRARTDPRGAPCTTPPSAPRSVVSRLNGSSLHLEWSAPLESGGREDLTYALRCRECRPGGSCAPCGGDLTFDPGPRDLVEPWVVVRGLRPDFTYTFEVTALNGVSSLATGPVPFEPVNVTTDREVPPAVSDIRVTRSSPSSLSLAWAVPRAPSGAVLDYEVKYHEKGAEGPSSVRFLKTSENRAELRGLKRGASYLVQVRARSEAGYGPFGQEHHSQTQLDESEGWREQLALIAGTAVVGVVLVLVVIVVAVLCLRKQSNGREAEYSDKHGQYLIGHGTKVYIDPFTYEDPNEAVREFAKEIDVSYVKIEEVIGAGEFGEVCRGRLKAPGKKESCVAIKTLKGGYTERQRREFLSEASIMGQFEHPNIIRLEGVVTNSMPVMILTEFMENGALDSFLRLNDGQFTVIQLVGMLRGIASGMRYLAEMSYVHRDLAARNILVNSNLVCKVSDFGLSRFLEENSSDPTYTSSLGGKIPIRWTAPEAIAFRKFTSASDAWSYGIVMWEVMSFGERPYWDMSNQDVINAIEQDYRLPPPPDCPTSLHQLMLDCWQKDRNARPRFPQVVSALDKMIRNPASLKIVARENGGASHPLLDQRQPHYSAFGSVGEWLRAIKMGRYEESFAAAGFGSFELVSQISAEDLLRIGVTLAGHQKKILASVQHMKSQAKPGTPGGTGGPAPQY

off-target kinases [6] = molecular target: off-target kinases (Homo sapiens, UniProt P78527)
off-target kinases [7] = molecular target: off-target kinases (Homo sapiens, UniProt Q16584); conditions: MAP3K11 (MLK3), LanthaScreen Binding
off-target kinases [8] = molecular target: off-target kinases (Homo sapiens, UniProt Q86UE8); conditions: TLK2, LanthaScreen Binding
Chain of off-target kinases (Homo sapiens, UniProt Q86UE8) (Q86UE8 whole entry): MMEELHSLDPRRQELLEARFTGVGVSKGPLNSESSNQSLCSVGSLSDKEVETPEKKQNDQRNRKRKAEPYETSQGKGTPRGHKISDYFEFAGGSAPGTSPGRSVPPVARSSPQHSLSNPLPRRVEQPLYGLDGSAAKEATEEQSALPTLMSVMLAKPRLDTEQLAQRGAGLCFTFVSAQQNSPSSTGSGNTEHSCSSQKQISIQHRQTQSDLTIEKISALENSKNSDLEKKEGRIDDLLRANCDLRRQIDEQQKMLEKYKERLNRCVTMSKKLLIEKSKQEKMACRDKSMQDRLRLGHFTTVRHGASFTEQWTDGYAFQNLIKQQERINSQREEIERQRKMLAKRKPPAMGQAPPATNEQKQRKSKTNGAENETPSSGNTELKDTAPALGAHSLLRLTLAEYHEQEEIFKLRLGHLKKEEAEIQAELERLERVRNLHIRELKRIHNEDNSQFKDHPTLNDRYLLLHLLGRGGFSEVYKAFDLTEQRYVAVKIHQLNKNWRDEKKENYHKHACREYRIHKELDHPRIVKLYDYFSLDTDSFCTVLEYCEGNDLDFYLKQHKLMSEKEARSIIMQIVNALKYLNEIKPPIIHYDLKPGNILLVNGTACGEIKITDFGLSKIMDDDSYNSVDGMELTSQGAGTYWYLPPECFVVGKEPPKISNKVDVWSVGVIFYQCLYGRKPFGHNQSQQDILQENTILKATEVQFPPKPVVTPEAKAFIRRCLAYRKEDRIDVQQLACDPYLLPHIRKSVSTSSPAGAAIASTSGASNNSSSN

Chain of off-target kinases (Homo sapiens, UniProt O95819) (O95819 whole entry): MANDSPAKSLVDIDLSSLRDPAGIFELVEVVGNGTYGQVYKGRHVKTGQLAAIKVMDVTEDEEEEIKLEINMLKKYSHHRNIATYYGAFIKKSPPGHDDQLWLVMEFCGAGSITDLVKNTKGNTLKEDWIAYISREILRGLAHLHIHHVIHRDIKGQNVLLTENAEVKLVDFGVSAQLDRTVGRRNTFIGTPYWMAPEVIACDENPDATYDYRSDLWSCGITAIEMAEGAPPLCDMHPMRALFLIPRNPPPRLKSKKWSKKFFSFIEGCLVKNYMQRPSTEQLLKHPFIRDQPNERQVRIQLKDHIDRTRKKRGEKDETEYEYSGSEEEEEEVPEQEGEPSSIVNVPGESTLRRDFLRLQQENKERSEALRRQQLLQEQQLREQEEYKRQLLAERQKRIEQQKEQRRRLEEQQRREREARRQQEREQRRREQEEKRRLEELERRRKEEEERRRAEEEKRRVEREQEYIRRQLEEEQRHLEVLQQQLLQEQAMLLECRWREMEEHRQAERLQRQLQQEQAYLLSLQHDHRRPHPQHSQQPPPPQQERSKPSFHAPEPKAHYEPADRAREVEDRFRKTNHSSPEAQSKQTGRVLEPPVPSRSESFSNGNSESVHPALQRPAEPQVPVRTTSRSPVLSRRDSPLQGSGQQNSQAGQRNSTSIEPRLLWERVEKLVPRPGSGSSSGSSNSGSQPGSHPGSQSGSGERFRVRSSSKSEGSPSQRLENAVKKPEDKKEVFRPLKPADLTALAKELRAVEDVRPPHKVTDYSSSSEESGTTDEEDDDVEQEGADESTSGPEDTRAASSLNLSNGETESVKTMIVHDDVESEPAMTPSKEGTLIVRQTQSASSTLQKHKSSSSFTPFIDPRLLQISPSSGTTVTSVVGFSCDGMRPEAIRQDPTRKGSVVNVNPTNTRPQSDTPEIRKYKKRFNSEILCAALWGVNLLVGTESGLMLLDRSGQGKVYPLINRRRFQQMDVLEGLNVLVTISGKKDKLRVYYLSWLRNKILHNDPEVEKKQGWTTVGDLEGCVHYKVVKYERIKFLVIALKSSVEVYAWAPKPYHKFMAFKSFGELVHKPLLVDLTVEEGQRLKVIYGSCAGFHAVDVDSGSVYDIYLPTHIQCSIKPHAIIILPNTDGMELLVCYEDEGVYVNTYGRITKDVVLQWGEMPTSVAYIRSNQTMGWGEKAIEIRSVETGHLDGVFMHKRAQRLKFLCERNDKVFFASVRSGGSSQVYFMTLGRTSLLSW
Chain of off-target kinases (Homo sapiens, UniProt P36888) (P36888 27-993): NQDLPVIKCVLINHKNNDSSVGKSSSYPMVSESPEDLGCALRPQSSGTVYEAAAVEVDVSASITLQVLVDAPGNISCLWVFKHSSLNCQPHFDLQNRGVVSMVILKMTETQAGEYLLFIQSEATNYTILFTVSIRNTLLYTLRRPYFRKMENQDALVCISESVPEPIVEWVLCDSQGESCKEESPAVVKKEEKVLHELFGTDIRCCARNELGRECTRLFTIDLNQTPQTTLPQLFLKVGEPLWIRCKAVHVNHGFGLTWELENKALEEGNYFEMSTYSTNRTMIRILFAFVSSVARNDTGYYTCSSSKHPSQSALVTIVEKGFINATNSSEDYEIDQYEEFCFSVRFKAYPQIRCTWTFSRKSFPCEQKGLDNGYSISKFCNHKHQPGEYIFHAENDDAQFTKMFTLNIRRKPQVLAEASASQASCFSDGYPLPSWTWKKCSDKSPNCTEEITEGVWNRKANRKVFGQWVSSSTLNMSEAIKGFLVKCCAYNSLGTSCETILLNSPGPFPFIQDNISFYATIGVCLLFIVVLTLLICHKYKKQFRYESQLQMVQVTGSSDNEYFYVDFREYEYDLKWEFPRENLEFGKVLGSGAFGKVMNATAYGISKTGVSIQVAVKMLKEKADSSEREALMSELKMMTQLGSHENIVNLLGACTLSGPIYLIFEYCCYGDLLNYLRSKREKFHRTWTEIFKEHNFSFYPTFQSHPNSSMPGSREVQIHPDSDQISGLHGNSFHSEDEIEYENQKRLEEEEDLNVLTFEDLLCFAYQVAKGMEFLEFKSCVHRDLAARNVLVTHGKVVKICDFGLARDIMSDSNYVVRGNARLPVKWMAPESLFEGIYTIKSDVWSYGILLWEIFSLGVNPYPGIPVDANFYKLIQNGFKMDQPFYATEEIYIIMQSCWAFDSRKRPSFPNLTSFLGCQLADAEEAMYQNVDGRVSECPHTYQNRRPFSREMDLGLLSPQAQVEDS
Chain of off-target kinases (Homo sapiens, UniProt P00533, L861Q) (P00533 25-1210 L861Q): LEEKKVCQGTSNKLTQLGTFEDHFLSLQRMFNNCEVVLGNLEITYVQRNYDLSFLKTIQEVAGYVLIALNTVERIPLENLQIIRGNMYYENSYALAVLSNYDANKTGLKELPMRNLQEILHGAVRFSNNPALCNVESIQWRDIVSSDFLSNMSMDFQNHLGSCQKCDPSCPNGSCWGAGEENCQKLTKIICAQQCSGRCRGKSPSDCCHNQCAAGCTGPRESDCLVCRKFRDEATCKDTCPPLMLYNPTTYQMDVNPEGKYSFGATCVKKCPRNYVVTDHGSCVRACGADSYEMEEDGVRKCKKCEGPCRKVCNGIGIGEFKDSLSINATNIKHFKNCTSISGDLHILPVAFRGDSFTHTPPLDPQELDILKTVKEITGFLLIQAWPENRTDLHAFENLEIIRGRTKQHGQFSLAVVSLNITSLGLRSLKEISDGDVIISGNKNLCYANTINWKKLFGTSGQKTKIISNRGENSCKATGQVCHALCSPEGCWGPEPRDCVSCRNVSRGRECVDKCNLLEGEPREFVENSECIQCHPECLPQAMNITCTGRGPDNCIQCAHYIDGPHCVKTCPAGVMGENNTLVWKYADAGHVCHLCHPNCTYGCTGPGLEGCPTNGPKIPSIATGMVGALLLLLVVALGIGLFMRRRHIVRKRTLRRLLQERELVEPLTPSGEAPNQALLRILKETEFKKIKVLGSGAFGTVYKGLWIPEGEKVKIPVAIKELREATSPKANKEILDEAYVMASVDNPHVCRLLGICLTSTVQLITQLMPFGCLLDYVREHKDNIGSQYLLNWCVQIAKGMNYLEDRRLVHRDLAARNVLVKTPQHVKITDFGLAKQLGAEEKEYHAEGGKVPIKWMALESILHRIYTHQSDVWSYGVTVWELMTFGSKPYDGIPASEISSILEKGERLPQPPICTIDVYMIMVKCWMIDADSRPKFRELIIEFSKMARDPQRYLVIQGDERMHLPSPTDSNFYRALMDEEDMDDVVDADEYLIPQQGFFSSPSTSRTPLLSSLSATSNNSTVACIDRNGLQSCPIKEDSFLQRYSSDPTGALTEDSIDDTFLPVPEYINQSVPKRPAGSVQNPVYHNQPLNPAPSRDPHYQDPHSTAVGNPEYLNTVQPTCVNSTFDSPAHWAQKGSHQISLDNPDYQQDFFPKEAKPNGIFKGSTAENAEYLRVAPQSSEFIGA
Chain of off-target kinases (Homo sapiens, UniProt P43250) (P43250 whole entry): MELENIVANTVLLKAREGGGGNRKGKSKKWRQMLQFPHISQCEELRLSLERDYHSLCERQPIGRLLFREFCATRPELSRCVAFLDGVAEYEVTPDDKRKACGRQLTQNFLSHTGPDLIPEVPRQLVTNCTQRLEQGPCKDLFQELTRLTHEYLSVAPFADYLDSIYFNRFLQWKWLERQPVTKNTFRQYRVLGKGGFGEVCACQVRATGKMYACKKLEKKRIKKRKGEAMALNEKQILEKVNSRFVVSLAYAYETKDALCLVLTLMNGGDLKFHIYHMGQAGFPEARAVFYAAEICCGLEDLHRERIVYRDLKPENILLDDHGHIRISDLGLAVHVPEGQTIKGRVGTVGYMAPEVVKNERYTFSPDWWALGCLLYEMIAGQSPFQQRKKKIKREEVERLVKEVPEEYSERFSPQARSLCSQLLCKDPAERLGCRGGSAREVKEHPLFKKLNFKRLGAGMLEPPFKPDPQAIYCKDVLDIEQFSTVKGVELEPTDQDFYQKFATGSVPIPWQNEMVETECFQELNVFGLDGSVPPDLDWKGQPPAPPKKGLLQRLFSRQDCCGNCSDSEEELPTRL

In the case of `N#Cc1cc(-c2ncnc(Nc3ccc(N4CCN(C5COC5)CC4)cc3)n2)ccc1OC1CCOCC1` [Compound 1, 5-(4-((4-(4-(oxetan-3-yl)piperazin-1-yl)phenyl)amino)-1,3,5-triazin-2-yl)-2-((tetrahydro-2H-pyran-4-yl)oxy)benzonitrile], the inhibition (off-target kinases [1]; read-out: % Inhibition 1) is reported as 86%, the inhibition (off-target kinases [1]; read-out: % Inhibition 2) is reported as 86% and the inhibition (off-target kinases [1]; read-out: % Inhibition Avg) is reported as 86%. For the same compound, the inhibition (off-target kinases [2]; read-out: % Inhibition 1) was 6%, the inhibition (off-target kinases [2]; read-out: % Inhibition 2) was 5% and the inhibition (off-target kinases [2]; read-out: % Inhibition Avg) was 5%. For the same compound, the inhibition (off-target kinases [3]; read-out: % Inhibition 1) was 42%, the inhibition (off-target kinases [3]; read-out: % Inhibition 2) was 49% and the inhibition (off-target kinases [3]; read-out: % Inhibition Avg) was 45%. It also gave an inhibition (off-target kinases [4]; read-out: % Inhibition 1) of 2%, an inhibition (off-target kinases [4]; read-out: % Inhibition 2) of 2% and an inhibition (off-target kinases [4]; read-out: % Inhibition Avg) of 2%. It also gave an inhibition (off-target kinases [5]; read-out: % Inhibition 1) of 15%, an inhibition (off-target kinases [5]; read-out: % Inhibition 2) of 14% and an inhibition (off-target kinases [5]; read-out: % Inhibition Avg) of 15%. The inhibition (off-target kinases [6]; DNA-PK, ZLYTE, ATP Km app, read-out: % Inhibition 1) was 2%, the inhibition (off-target kinases [6]; DNA-PK, ZLYTE, ATP Km app, read-out: % Inhibition 2) was -4% and the inhibition (off-target kinases [6]; read-out: % Inhibition Avg) was -1%. It also gave an inhibition (off-target kinases [7]; read-out: % Inhibition 1) of 24%, an inhibition (off-target kinases [7]; read-out: % Inhibition 2) of 29% and an inhibition (off-target kinases [7]; read-out: % Inhibition Avg) of 26%. The inhibition (off-target kinases [8]; read-out: % Inhibition 1) was 84%, the inhibition (off-target kinases [8]; read-out: % Inhibition 2) was 81% and the inhibition (off-target kinases [8]; read-out: % Inhibition Avg) was 83%.
